Laboratory results from patent publication US8344022B2, “Vaginal health products” (Kimberly-Clark Worldwide, Inc., priority 2004, dated 2013).
Values joined by “and” are separate entries in the source; they are usually repeats but may differ in a detail not shown here. Equal values may be shown once. “Also recorded” adds a separate entry of the source.

Columns and labels:
ME-180 cells = test: ME-180 cell growth (cell counting) with vitamin E or vitamin A derivatives; type: cell-based, human; settings: for effect on ME-180 cell growth: 1 nM, 10 nM and 100 nM; for ME-180 cell growth vs negative control (FIG. 2): 1 μM or 10 μM, two days; for ME-180 cell growth: three days
Procedure: Cell Culture. Human cervical epithelial cells (ME-180, ATCC) were propagated in culture at 37° C. using 5% CO2 in McCoy's 5A media (Invitrogen) with 10% heat-inactivated fetal bovine serum (Invitrogen). Vitamin E was purchased from ICN Biomedicals. Vitamin E stock solutions were made up in absolute ethanol.
ME-180 cells were incubated with vitamin E at various concentrations for three days. At 10 μM vitamin E, ME-180 cell growth was inhibited (data not shown). However, this may be due to the presence of a larger concentration of ethanol (used as a solvent for vitamin E) in the media. […] At 1 μM vitamin E, ME-180 cell growth was enhanced more than the corresponding negative control. At 100 nM vitamin E, cell growth was not effected in comparison to the negative control. Therefore, a concentration of 1 μM vitamin E was used to measure changes in RNA expression over a 24 hour period.
Cell Proliferation of ME-180 Cells. ME-180 cells were incubated with vitamin A derivatives for a period of up to 3 days. ME-180 cells were counted on each day.

mucin-4 (MUC-4) = test: RT-PCR expression assay in ME-180 cells: mucin-4; type: cell-based, human; settings: for MUC-4 expression: 100 nM vitamin A; for mucin-4 expression: 1 μM vitamin E, 24 hours
Procedure: (§1) RNA Extraction from ME-180 cells. ME-180 cells were plated at 2×10^5 cells per T75 flask (15 mL total volume) and were allowed to propagate for four days. On day four, the media was removed. Fifteen mL of McCoy's SA media with or without 10% FBS containing 0 or 1 μM vitamin E were added to ME-180 cells in duplicate. ME-180 cells were incubated with these solutions for 24 hours. The media was removed, and 1500 μL of lysis buffer was added to the flasks. The cells were scraped off of the flask with a cell scraper. The RNA was isolated using the Ambion RNAqueous kit according to the manufacturer's instructions. Precipitated RNA was resuspended in DEPC-treated water with 1 μL of RNase inhibitor.
(§2) Reverse Transcription of RNA. Approximately 7 μL of RNA was incubated with 3 μL of primer at 80° C. for 10 minutes then immediately placed on ice. A master mix containing 4 μL DEPC water, 4 μL 5× reaction buffer, 1 μL dNTPs, 1 μL of RNase inhibitor, and 1 μL of reverse transcriptase was made for the reactions. Ten μL of master mix was added to the RNA/primer solution and placed at 42° C. for 2 hours. The resulting cDNA was incubated with 3.5 μL of NaOH solution at 70° C. for 10 minutes to hydrolyze the remaining RNA. Five μL of 0.5M Tris/EDTA was added to neutralize the solution. To precipitate the cDNA, 125 μL of 3M NH4OAc, 5 μL of linear polyacrylamide, and 700 μL of absolute ethanol were added. The solutions were vortexed and placed at −20° C. overnight. Samples were centrifuged at 14000 rpm at 4° C. for 30 minutes. The ethanol was removed, and the samples were allowed to dry for 10 minutes. The cDNA was resuspended in 10-12 μL of PCR grade water.
(§3) Polymerase Chain Reaction (PCR). A master mix using the Advantage 2 PCR kit (Ambion) was made for the PCR reactions containing 37-38 μL of PCR grade water, 5 μL of 10×PCR buffer, 1 μL of dNTPs, 1 μL of β-actin primers (10 μM, optional control), and 2 μL of test primers (10 μM, P2Y2, or Mucin-4 (MUC-4)). Two microliters of cDNA and […] of DNA polymerase were added. Cycling conditions were as follows: 5 min at 95° C.; 25-30 cycles (30 sec at 95° C., 1 min at 65° C., 3 min at 68° C.); 5 min at 68° C.
RNA was isolated (as described above) from ME-180 cervical cells treated with 0 nM or 100 nm vitamin A in the absence of serum. The RNA was reverse transcribed to form cDNA, and PCR techniques (as described above) were used to determine the effect of vitamin A on the expression of mucin-4 (MUC-4).

P2Y2 receptor gene = test: RT-PCR expression assay in ME-180 cells: P2Y2; type: cell-based, human
Procedure: as §1, §2
as §3, with “Cycling conditions were as follows: 5 min at 95° C.; 25-30 cycles (30 sec at 95° C., 1 min at 65° C., 3 min at 68° C.); 5 min at 68° C.” left out

[1] = system: vascular endothelial growth factor (VEGF); test: RT-PCR expression assay in ME-180 cells: VEGF; type: cell-based, human
[2] = system: estrogen receptor alpha (ER-α); test: RT-PCR expression assay in ME-180 cells: ER-α; type: cell-based, human; settings: 100 nM vitamin A, no serum, 4, 8 and 16 hours
Procedure: Cell samples exposed to vitamin A in the absence of serum were also tested for expression of other genes that may also affect atrophic vaginitis. Using primers designed to amplify the estrogen receptor alpha (ER-α) gene, PCR was performed using the RNA samples from cells starved of serum. The ER-α product (650 bp) was visible in the control (FIG. 4, lane 2), where the template was cDNA from ME-180 cells cultured in the presence of serum. […] However, in the samples that were exposed to 100 nM vitamin A but no serum for 4, 8, and 16 hours, the […] gene was expressed (Lanes 4-6, respectively). […] Increasing the amount of estrogen receptors on epithelial cells in the genital tract may increase the probability that a receptor will be activated by estrogen.

DTR = test: RT-PCR expression assay in ME-180 cells: DTR; type: cell-based, human; settings: 1 μM vitamin E, 24 hours, absence of serum
human skin keratinocytes = test: Keratinocyte proliferation, 96-well Cell Titer 96 assay; type: cell-based; settings: 1×10^−4 to 1×10^−6 M
Procedure: The proliferative response of these human skin keratinocytes to the test compounds was measured in a 96-well assay system using keratinocyte basal medium (KBM, Clonetics, catalog number CC-3103) as a control. […] In addition, 100 μl of vehicle KBM was added to 5 wells as control. […] The spectrophotometric absorbance of each well was read at 490 nm.

[3] = system: collagen production in human skin fibroblast cell line; test: Collagen production by human skin fibroblasts (Takara EIA MK101); type: cell-based; settings: 1×10^−4 to 1×10^−6 M
Procedure: The cells were first grown in a 96-well assay system using Dulbecco's Modified Eagle's Medium (DMEM) with 10% fetal bovine serum (FBS) both purchased from Sigma Chemical Co, St. Louis, Mo. Serum-free DMEM was used as a control.
The assay was done by using the recommended 20 ul of the supernatant from each well of the 96-well plate. Standard buffer and stop solutions were freshly prepared before running the assay. 100 ul of antibody-POD conjugate solution (supplied with the kit) was added into the wells using pre antibody coated 96 well plate (supplied with the kit). 20 ul of standard and test solutions (from the other 96-well plate containing fibroblasts) were added to appropriate wells. Plate was mixed gently, sealed and incubated for three hrs. at 37° C.
After incubation each well was washed carefully four times with PBS buffer (400 ul). All the wells were completely emptied at the end of washing from any liquid.
100 ul of substrate solution (hydrogen peroxide and tetramethylbenzidine in a buffer solution, supplied with the kit) was added to each well and the plate was incubated for 15 minutes. At this point 100 ul of stop solution (freshly prepared 1N H2SO4) was added to each well in the same order as substrate. The plate was gently mixed and absorbance was read at 450 nm.

[4] = system: fibronectin production in human skin fibroblast cell line; test: Fibronectin production by human skin fibroblasts (Takara EIA MK115); type: cell-based; settings: all concentrations tested, vs control
Procedure: The cells were first grown in a 96-well assay system using Dulbecco's Modified Eagle's Medium (DMEM) with 10% fetal bovine serum (FBS) both purchased from Sigma Chemical Co, St. Louis, Mo. Serum-free DMEM was used as a control. […] The fibronectin assay was performed using the recommended 100 μl of the supernatant from each well of the 96-well plate. Standard buffer and stop solutions were freshly prepared before running the assay. A pre-antibody-coated 96 well plate (provided with the kit) was used to transfer the test samples and control. The plate was mixed, sealed and incubated for 1 hour at 37° C. All the wells were washed after removing sample solutions, 3 times (300 μl) with washing buffer. 100 ul of antibody-POD conjugate solution was added into the wells. Plate was mixed, sealed and incubated for one hour at 37° C. Solutions were removed and the wells were washed 3 times with washing buffer. All the wells were completely emptied at the end of washing from any liquid. 100 μl of substrate solution (hydrogen peroxide and tetramethylbenzidine in a buffered solution) was added to each well and the plate was incubated at room temperature for 15 minutes. 100 μl of stop solution (freshly prepared 1N H2SO4) was added to each well in the same order as substrate. The plate was gently mixed and absorbance was read at 450 nm.

stratum corneum = test: Dansyl chloride cell renewal study in healthy female volunteers; type: in vivo, human
From the text: The stratum corneum renewal time is the time taken for the whole thickness of the stratum corneum to be exfoliated and replaced by new cells from the dividing epidermis. This renewal time is a fundamental indicator of skin health. […] See Jansen L H, Hojyo-Tomoko M T, Kligman A M., Improved fluorescence staining technique for estimating turnover of the human stratum corneum, Br J Dermatol., 90, 9-12, 1974; Ridge B D, Batt M D, Palmer H E, Jarrett A, The dansyl chloride technique for stratum corneum renewal as an indicator of changes in epidermal mitotic activity following topical treatment., Br J Dermatol., 118, 167-74, 1988; Grove G L, Kligman A M, Age-associated changes in human epidermal cell renewal., J Geron., 38, 137-142, 1983. The time required for the dye to disappear is therefore an indication of the turnover time of the stratum corneum. Therefore, any differences in the time required for the dye to disappear from treated and non-treated sites can be considered to be an expression of that product's ability to enhance epidermal renewal.
A dansyl chloride cell renewal study was conducted in healthy female volunteers ranging from 43-64 years of age. The study consisted of a two-week treatment period during which time the products were applied topically twice daily, including on weekend days, to the test sites. The area of application was designated, approximately 5 cm×10 cm on the upper inner arm. The other arm served as a control with no product application. […] Eight females received jasmonic acid and seven females received gibberellic acid.
The time required for a marker dye to disappear was used as the measure of cell renewal rate.

[5] = 1 μM vitamin E, 24 hours, absence of serum

CC1=C(/C=C/C(C)=C/C=C/C(C)=C\C(=O)O)C(C)(C)CCC1 [13-cis-retinoic acid]
effect on ME-180 cell growth (ME-180 cells): little effect
ME-180 cell growth vs negative control (FIG. 2) (ME-180 cells): did not grow as well as the negative control
toxicity to ME-180 cells (ME-180 cells; micromolar concentrations): toxic

CC1=C(/C=C/C(C)=C/C=C/C(C)=C/C(=O)O)C(C)(C)CCC1 [trans-retinoic acid]
toxicity (conclusion of the ME-180 experiments) (ME-180 cells): nontoxic
ME-180 cell growth compared with other agents or unexposed control (ME-180 cells; 1 nM to 100 nM experiment): growing slightly faster
effect on ME-180 cell growth (ME-180 cells): little effect
ME-180 cell growth vs negative control (FIG. 2) (ME-180 cells): more cells were present
MUC-4 expression (mucin-4 (MUC-4); absence of serum, 4 hours or 8 hours): detectable
MUC-4 expression (mucin-4 (MUC-4); absence of serum, 16 hours): decreases but is still detectable
P2Y2 expression (P2Y2 receptor gene; 100 nM vitamin A, in the presence and in the absence of serum): increase
VEGF expression ([1]; 100 nM vitamin A): increased
ER-α expression [2]: expressed; also recorded: increase

vitamin E
ME-180 cell growth (ME-180 cells; 100 nM vitamin E, vs negative control): not effected
ME-180 cell growth (ME-180 cells; 1 μM vitamin E, vs negative control): enhanced
ME-180 cell growth (ME-180 cells; 10 μM vitamin E, ethanol control also showed no growth): inhibited
mucin-4 expression (mucin-4 (MUC-4); absence of serum): increases; also recorded: significantly increased
mucin-4 expression (mucin-4 (MUC-4); presence of serum): no significant changes
P2Y2 expression (P2Y2 receptor gene; [5]): no observable difference
P2Y2 expression (P2Y2 receptor gene; 1 μM vitamin E, 24 hours, presence of serum): no significant changes
VEGF expression [1, 5]: no observable difference
DTR expression (DTR): no observable difference

C=C1C[C@]23C[C@@]1(O)CC[C@H]2[C@@]12C=C[C@H](O)[C@@](C)(C(=O)O1)[C@H]2[C@@H]3C(=O)O [gibberellic acid, Gibberellin A3]
cell proliferating activity on human keratinocytes (summary in words) (human skin keratinocytes): strong cell proliferating activity
collagen production in human fibroblasts (summary in words) [3]: stimulate collagen production
fibronectin production in human fibroblasts (summary in words) [4]: effective
skin irritation or redness (stratum corneum; 0.25% topical twice daily, two weeks, all study volunteers): no visible sign of any skin irritation or redness
RENEWAL, time for cell renewal of treated skin (stratum corneum; individual patients (one value per patient #), 0.25% in hyaluronic acid (0.5% aqueous solution), topical twice daily, upper inner arm, listed as GA): 14 Days (2×) and 12 Days (2×) and 19 Days and 17 Days and 21 Days
faster cell renewal rate over control (stratum corneum; overall, 0.25% topical, vs untreated arm): 20%
reduction in time required for cell renewal vs untreated control (stratum corneum; vs volunteers' control without treatment): about 20%

CC1=C(/C=C/C(C)=C\C=C\C(C)=C\C(=O)O)C(C)(C)CCC1 [9-cis-retinoic acid]
effect on ME-180 cell growth (ME-180 cells): little effect
